# Assay results published in the supplement of paper PMC10307832.
# Legend:
# Assay in all cases: relative viability (nuclei count vs DMSO), 5 days (fraction); higher = more cells survive
# Zebularine + Alpelisib = compound: O=c1ncccn1[C@@H]1O[C@H](CO)[C@@H](O)[C@H]1O [Zebularine] + Cc1nc(NC(=O)N2CCC[C@H]2C(N)=O)sc1-c1ccnc(C(C)(C)C(F)(F)F)c1 [Alpelisib] (partner 2 µM)
# How it was run: (§1)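 Dosing by pin tool came one day after lung cancer cell lines were seeded in 1536-well plates, using either one drug or a fixed anchor-drug dose plus five library-drug doses (not always all listed) in √10 steps. After 5 days, nuclei were counted on 4× images. Relative viability is treated-well nuclei count divided by vehicle-well nuclei count, and values are medians of duplicate plates.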
# BI-D1870 + Palbociclib = compound: CC(C)CCN1c2nc(Nc3cc(F)c(O)c(F)c3)ncc2N(C)C(=O)C1C [BI-D1870] + CC(=O)c1c(C)c2cnc(Nc3ccc(N4CCNCC4)cn3)nc2n(C2CCCC2)c1=O [Palbociclib] (partner 0.5 µM)
# How it was run: as §1
# Zebularine + Decitabine = compound: O=c1ncccn1[C@@H]1O[C@H](CO)[C@@H](O)[C@H]1O [Zebularine] + Nc1ncn([C@H]2C[C@H](O)[C@@H](CO)O2)c(=O)n1 [Decitabine] (partner 2 µM)
# How it was run: as §1
# BI-D1870 + Pemetrexed = compound: CC(C)CCN1c2nc(Nc3cc(F)c(O)c(F)c3)ncc2N(C)C(=O)C1C [BI-D1870] + Nc1nc2[nH]cc(CCc3ccc(C(=O)N[C@@H](CCC(=O)O)C(=O)O)cc3)c2c(=O)[nH]1 [Pemetrexed] (partner 0.2 µM)
# How it was run: as §1
Cell Line,relative viability (Zebularine + Alpelisib; first compound 1 µM),relative viability (Zebularine + Alpelisib; first compound 3.162 µM),relative viability (Zebularine + Alpelisib; first compound 10 µM),relative viability (Zebularine + Alpelisib; first compound 31.62 µM),relative viability (Zebularine + Alpelisib; first compound 100 µM),relative viability (BI-D1870 + Palbociclib; first compound 0.04 µM),relative viability (BI-D1870 + Palbociclib; first compound 0.1265 µM),relative viability (BI-D1870 + Palbociclib; first compound 0.4 µM),relative viability (BI-D1870 + Palbociclib; first compound 1.265 µM),relative viability (BI-D1870 + Palbociclib; first compound 4 µM),relative viability (Zebularine + Decitabine; first compound 1 µM),relative viability (Zebularine + Decitabine; first compound 3.162 µM),relative viability (Zebularine + Decitabine; first compound 10 µM),relative viability (Zebularine + Decitabine; first compound 31.62 µM),relative viability (Zebularine + Decitabine; first compound 100 µM),relative viability (BI-D1870 + Pemetrexed; first compound 0.04 µM),relative viability (BI-D1870 + Pemetrexed; first compound 0.1265 µM),relative viability (BI-D1870 + Pemetrexed; first compound 0.4 µM),relative viability (BI-D1870 + Pemetrexed; first compound 1.265 µM),relative viability (BI-D1870 + Pemetrexed; first compound 4 µM)
HCC-366,0.409,0.434,0.161,0.509,0.182,0.422,0.404,0.329,0.445,0.376,0.412,0.336,0.274,0.389,0.108,0.148,0.174,0.215,0.176,0.118
BEN,0.991,0.897,0.454,0.372,0.377,0.486,0.45,0.472,0.46,0.423,0.821,0.686,0.545,0.495,0.371,0.784,0.628,0.743,0.96,0.697
NCI-H23,0.577,0.709,,0.775,0.563,0.568,0.47,0.546,0.525,0.323,0.344,0.342,,0.303,0.335,1.12,0.585,0.602,0.684,0.316
NCI-H1395,1.32,0.941,0.82,0.785,0.598,0.649,0.603,0.64,0.717,0.638,0.678,0.755,0.82,0.709,0.623,0.882,0.735,0.848,0.95,0.86
201T,1.07,1.06,0.859,0.992,0.877,0.358,0.339,0.362,0.365,0.356,0.872,0.883,0.76,0.894,0.844,0.319,0.308,0.307,0.344,0.316
NCI-H2170,0.85,0.84,0.543,0.684,0.507,0.455,0.38,0.423,0.447,0.398,0.48,0.423,0.426,0.505,0.349,0.299,0.269,0.261,0.249,0.403
NCI-H460,0.519,0.679,0.217,0.215,0.115,0.226,0.154,0.135,0.184,0.121,0.549,0.504,0.236,0.467,0.112,0.0638,0.0586,0.0621,0.0582,0.0624
NCI-H661,0.653,0.498,0.333,0.737,0.603,0.459,0.392,0.419,0.384,0.358,0.564,0.551,0.48,0.608,0.505,0.913,0.906,0.931,0.928,0.857
HCC-15,1.01,0.887,0.596,0.654,0.248,0.701,0.64,0.722,0.746,0.681,0.683,0.575,0.36,0.684,0.487,0.222,0.23,0.229,0.215,0.187
LCLC-103H,1.08,0.945,0.95,0.904,0.761,0.475,0.471,0.439,0.409,0.379,0.801,0.727,0.713,0.719,0.666,0.453,0.457,0.48,0.434,0.439
NCI-H441,0.779,0.73,0.496,0.271,0.264,0.266,0.21,0.173,0.225,0.229,0.246,0.237,0.266,0.184,0.16,0.262,0.279,0.245,0.237,0.265
EPLC-272H,0.975,,,0.828,0.776,0.323,0.358,0.306,0.288,0.23,0.404,,0.398,0.364,0.371,0.325,0.355,0.242,0.295,0.202
